pIC50: −log10 of the molar value.
These compounds were tested against T1, 5-Lipoxygenase (Rattus norvegicus, UniProt P12527) (assay: 5-lipoxygenase inhibition in cultured rat basophilic leukemic leukocytes (radiolabelled arachidonic acid, TLC of 5-HETE and LTB4)). Conditions: rat basophilic leukemic leukocytes in 50 mM potassium phosphate buffer pH 7.4; indomethacin 10 µM, CaCl2 2 mM, labelled arachidonic acid + ionophore A 23 187, 5 min, room temperature; formation of 5-HETE and LTB4.
T1 construct: basophile leukämische Leukozyten der Ratte in-vitro gezüchtet; endogenous in cells; whole cells suspended in phosphate buffer, stimulated with A 23187
T1 sequence (P12527 1-673): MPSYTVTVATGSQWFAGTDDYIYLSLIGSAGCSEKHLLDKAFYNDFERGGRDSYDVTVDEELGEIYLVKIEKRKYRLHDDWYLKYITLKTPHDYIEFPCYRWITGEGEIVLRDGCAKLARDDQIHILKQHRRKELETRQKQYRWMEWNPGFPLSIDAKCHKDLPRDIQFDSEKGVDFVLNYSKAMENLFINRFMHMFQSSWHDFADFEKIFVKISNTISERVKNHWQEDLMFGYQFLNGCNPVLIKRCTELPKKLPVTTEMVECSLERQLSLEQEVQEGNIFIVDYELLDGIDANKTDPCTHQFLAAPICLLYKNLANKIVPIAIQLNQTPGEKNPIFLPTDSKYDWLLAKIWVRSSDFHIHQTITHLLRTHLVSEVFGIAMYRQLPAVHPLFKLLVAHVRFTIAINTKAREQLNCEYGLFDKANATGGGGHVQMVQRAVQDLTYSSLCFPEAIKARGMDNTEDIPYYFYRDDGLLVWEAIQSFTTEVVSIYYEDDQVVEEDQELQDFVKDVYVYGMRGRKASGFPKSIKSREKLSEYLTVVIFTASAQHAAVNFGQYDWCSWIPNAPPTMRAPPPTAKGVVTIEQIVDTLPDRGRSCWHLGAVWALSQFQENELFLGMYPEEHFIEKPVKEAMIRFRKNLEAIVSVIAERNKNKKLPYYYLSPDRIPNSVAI
Type: cell-based, Ratte
Experimental: Zur Ermittlung der 5-Lipoxygenasehemmung wurden basophile leukämische Leukozyten der Ratte in-vitro gezüchtet und nach Erreichen einer Zelldichte von ca. 10^6 Zellen pro ml bei 400 g vom Nährmedium abzentrifugiert. Der Rückstand wurde in 50 mM Kaliumphosphatpuffer vom pH 7,4 so suspendiert, daß die Zellzahl […] Zellen pro ml betrug.
Jeweils 1 ml dieser Suspension wurde mit Indomethacin (10 uM) und Calciumchlorid (2 mM) versetzt und in An-oder Abwesenheit einer der Testsubstanzen mit radioaktiv markierter Arachi- 5 donsäure und dem Calcium-lonophor A 23 187 bei Raumtemperatur für 5 Minuten inkubiert. Nach Ansäuern auf pH 5 wurden die unter dem Einfluß der 5-Lipoxygenase gebildeten Arachidonsäuremetaboliten mit Ethylacetat extrahiert und 10 mit einem für die Leukotriene geeigneten Fließmittelgemisch dünnschichtchromatographisch getrennt [vgl. Jakschik et al. Biochem. Biophys. Res. Commun. 102, 624 (1981)]. Die Radioaktivitätsverteilung auf die verschiedenen Metaboliten 15 wurde mit Hilfe eines Dünnschichtscanners gemessen. Setzt man die prozentualen Bildungsanteile der 5-Lipoxygenaseprodukte (5-HETE und LTB4) zu der Menge bzw. Konzentration der eingesetzten Gesamtradioaktivität bzw. der Testsubstanz 20 der Formel I in Relation, so läßt sich der IC50-Wert-(d. h. die Konzentration, die eine 50 %-ige Hemmung der 5-Lipoxygenase bewirkt) ermitteln.

Point of comparison: CCCCCC(O)/C=C/C#CCC#CCC#Cc1cccc(C(=O)OC)c1 (stereo not drawn) [Beispiel 1, 3-(11'-Hydroxy-hexadec-9'E-en-1',4',7'-triin-1'-yl)-benzoesäuremethylester], pIC50 5.77. Against it:
- COC(=O)c1cccc(C#CCC#CCC#C/C=C/C(O)C2CCCCC2)c1 (stereo not drawn) [Beispiel 4, 3-(11'-Cyclohexyl-11'-hydroxy-undec-9'E-en-1',4',7-triin-1'-yl)-benzoesäuremethylester] — within 0.2 log units, 5.85
- CCCCCC(O)/C=C/C=C\C/C=C\C/C=C\c1ccc(C(=O)OC)cc1 (stereo not drawn) [Beispiel 7, 4-(11'-Hydroxy-hexadeca-1'Z,4'Z,7'Z,9'E-tetraen-1'-yl)-benzoesäuremethylester] — 0.23 log units higher, 6.00
- CN(O)C(=O)c1ccc(C#CCCCCCCC#CCO)cc1 [Beispiel 11, 4-(11'-Hydroxy-undeca-1',9'-diin-1'-yl)-N-methylbenzhydroxamsäure] — 0.93 log units higher, 6.70
- CN(O)C(=O)c1cccc(C#CCCCCCCC#CCO)c1 [Beispiel 16] — 0.23 log units higher, 6.00
- O=C(c1cccc(C#CCCCCCCC#CCO)c1)N1CCCCC1 [Beispiel 17, 3-(11 '-Hydroxy-undeca-1',9'-diin-1'-yl)-benzoesäurepiperidid] — within 0.2 log units, 5.64
- CCOC(=O)c1cccc(C#CCCCCCCC#CCO)c1 [Beispiel 18, 3-(11 '-Hydroxy-undeca-1',9'-diin-1-yl)-benzoesäureethylester] — 0.65 log units lower, 5.12
- CN(O)C(=O)c1cccc(C#CCCCCCCC#CC(O)C2CCCCC2)c1 (stereo not drawn) [Beispiel 23biii, 3-(11'-Cyclohexyl-11'-hydroxy-undeca-1',9'-diin-1'-yl)-N-methylbenzhydroxamsäure] — 0.53 log units higher, 6.30
- CCCN(CCC)C(=O)c1cccc(C#CCCCCCCC#CCO)c1 [Beispiel 24g, 3-(11'-Hydroxy-undeca-1',9'-diin-1'-yl)-benzoesäure-[N,N-di-(n-propyl)]-amid] — within 0.2 log units, 5.62
- CC(=O)ON(C)C(=O)c1cccc(C#CCCCCCCC#CCO)c1 [Beispiel 24l, 3-(11'-Hydroxy-undeca-1',9'-diin-1'-yl)-benzoesäure-(N-methyl-N-acetoxy)-amid] — 0.53 log units higher, 6.30
- CC(C)N(C(=O)c1cccc(C#CCCCCCCC#CCO)c1)C(C)C [Beispiel 24n, 3-(11'-Hydroxy-undeca-1',9'-diin-1'-yl)-benzoesäure-[N,N-di-(isopropyl)]-amid] — within 0.2 log units, 5.80
- CCCCCNC(=O)c1cccc(C#CCCCCCCC#CCOC(C)=O)c1 [Beispiel 27a, 3-(11 '-Acetoxy-undeca-1',9'-diin-1'-yl)-benzoesäure-n-pentylamid] — 0.62 log units lower, 5.15

From EP0199985A2, “Benzoic-acid derivatives, pharmaceutical preparations comprising them and process for preparing these compounds and pharmaceutical preparations” (Grünenthal GmbH, priority 1985, dated 1986)
